Reference: patent US10329242B2, “Process for purifying long chain amino acids” (VITAWORKS IP, LLC, priority 2017, dated 2019)
Structures can show the parent of a compound that is named as a salt.

Columns and labels:
[1] = Solubility of bisulfate salts in 1 M solution of sulfuric acid; type: physicochemical; details: for solubility: temperature below 40° C.; for solubility change with temperature: temperature increased from 60° C. to 80° C. and above
[2] = Solubility in water and aqueous solution of acetic acid; type: physicochemical; details: aqueous solution of 10% (wt/wt) acetic acid at 80° C.

| solubility [1] | solubility change with temperature [1] | solubility [2] | SMILES |
| --- | --- | --- | --- |
| negligible solubility | drastically increased | up to 45 % (wt/wt) | NCCCCCCCCCCC(=O)O [11-aminoundecanoic acid] |
| negligible solubility | drastically increased | – | NCCCCCCCCCCCC(=O)O [bisulfate salt of 12-aminolauric acid, 12-aminolauric acid] |
